According to patent US20250034139A1, “AMINE COMPOUNDS HAVING ANTI-INFLAMMATORY, ANTIFUNGAL, ANTIPARASITIC, AND ANTICANCER ACTIVITY” (PHARMA CINQ, LLC, priority 2013, published 2025):
≈ marks a conversion by molar mass, not a printed value. Values belong to the molecule of their own block, whether it stands above or below them.

Experiments:
[1] = tested on: THP-1 cells; assay: Example D: LPS-triggered THP-1 cell death assay, acute/5-hour and chronic/48-hour; type: cell-based, Human; details: 10 ng/ml LPS, 0.1 μM test compound, 48 hours
Method: Compounds of the invention were tested at 0.1 μM versus AC in the LPS-triggered THP-1 cell death assay. Both acute/5-hour and chronic/48-hour phases of cell death were assessed. Compounds were screened in batches with DMSO as the negative control and AC as the high activity control.

[2] = tested on: 4T1 murine breast cancer cells; assay: Example S: in vitro anticancer screen, 4T1 cells, Wst1; type: cell-based, mouse; details: Mus musculus, 4T1, 18 h, 18 hr, Wst1
Outline: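 4T1 cells seeded at 1×10^4/well were exposed to compound at 1 μM or 5 μM for 18 hr after plating. Wst1 tetrazolium dye was then added for about 2 hr and absorbance read at 450 nm (reference 630 nm). Values are percent survival relative to vehicle-treated cells.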

[3] = tested on: 4T1 mouse mammary breast cancer cells; assay: Example O: syngeneic 4T1 breast cancer growth in Balb/C mice; type: in vivo; details: 4T1 in female Balb/C mice
Method: Cancer models in mice generally either involve syngeneic murine tumors in immunocompetent mice or xenografts of human tumors in immunocompromised mice. […] Mice received test compounds by oral gavage in 1% hydroxypropylmethylcellulose from day 2 until day 30. Tumor growth was assessed by caliper measurements twice per week and tumor weight after necropsy, and body weight was also monitored. Treatment groups were: • 1. […] HPMC) • 2. CI (120 μmol/kg/day) • 3. BA (120 μmol/kg/day) • 4. CP (120 μmol/kg/day) • 5. CQ (120 μmol/kg/day) • 6. AA (120 μmol/kg/day) • 7. AC (120 μmol/kg/day)

[4] = tested on: Candida albicans strain 3153; assay: Example H: Candida albicans growth inhibition (OD 600 nm); type: cell-based; details: for MIC: Candida albicans, 3153, 24 hrs at 30° C., YPD, XLfit, read-out: MIC (uM) (99% of inhibition of fungal growth); for IC50: Candida albicans, 3153, read-out: IC50 (uM) (50% inhibition of fungal growth), 24 hrs at 30° C., YPD, XLfit
Outline: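 Growth inhibition computed as % versus DMSO control from OD600 after ~24 h at 30° C. Inoculum: washed overnight YPD culture of strain 3153 at 3.5×10^4 CFU/ml in YPD; final compound concentrations 0, 5, 10, 16, 22, 30, 40 μM, duplicate wells.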

[5] = tested on: PC3 human prostate cancer cells; assay: Example S: in vitro anticancer screen, PC-3 cells, Wst1; type: cell-based; details: Homo sapiens, PC-3; 1.5 μM, approximately 20 hours, Wst1; read-out: PC-3, percent of cancer cell survival relative to vehicle treated cells
Outline: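 PC-3 cells, 2×10^4 cells/well, exposed ~20 h to vehicle or compound at 0.4, 0.5 or 2.5 μM as specified per compound. Wst1 dye added for 2 h; absorbance 450 nm (reference 630 nm), triplicates. Values are percent cell survival versus vehicle-treated cells.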

[6] = tested on: PC-3 prostate cancer cells; assay: Example T: sensitisation of PC-3 cells to doxorubicin, oxaliplatin, paclitaxel or vincristine, Wst1; type: cell-based, human; details: PC-3 cells, 72 hours
[7] = tested on: Hep3B hepatocellular carcinoma cell line; details: for Tumor Weight (g) Mean ± SEM: Hep3B in liver of nude mice, day 35, oral daily, sorafenib 30 mg/kg/day alone, 20 mg/kg/day in combination, AC 180, AK and AB 360 μmol/kg/day; for Body Weight (g) Mean ± SEM Initial: in vivo; for Complete Regressions: number of mice with no viable tumor at necropsy, day 35, doses as Table 35
Text: Hepatocellular carcinoma (HCC) is one of the most common and lethal cancers worldwide, generally developing as a consequence of chronic infection with hepatitis B or C viruses. […] The Hep3B hepatocellular carcinoma cell line is human in origin, contains genetic traces of hepatitis B virus, and can be injected into the livers of athymic immunocompromised mice as a model of primary HCC. […] The test compounds were all administered orally.
The test compounds of the invention were suspended in 1% hydroxypropylmethylcellulose (HPMC) using a sonicator equipped with a microtip to minimize particle size and maximize uniformity of the suspension. Sorafenib was dissolved in a 1:1 mixture of Cremophor EL and ethanol by heating to 60° C. for 1 minute and then sonicating for 10 minutes to fully suspend. Female nude mice (Hsd:athymic nude-Foxn1^nu) weighing approximately 25 g were anesthetized with ketamine/xylazine, laid on their backs, and a 1-cm transverse incision made through the skin and peritoneum of the left upper abdomen. The mediant lobe of the liver was exposed by applying gentle pressure on the abdomen. 1.5-2×10^6 Hep3B cells in a 20 μL volume of matrigel:EMEM serum free (1:1) were slowly implanted by subserosal injection into the liver using a 27-gauge needle on a Hamilton syringe. The liver was allowed to slip back into place, and the peritoneum was closed with sutures and wound clips.
Mice were divided into 8 groups of mice each following injection of cells; the vehicle/vehicle group comprised 12 mice and the other groups comprised 8 or 9. Mice began receiving oral test drug treatments 48 hr post cell injection.
The test compounds, sorafenib, and vehicles were administered by oral gavage. Sorafenib or its cremophor-containing vehicle were given in the morning and compounds of the invention or their HPMC vehicle was administered in the afternoon each day; all animals received two gavage treatments of drugs or appropriate vehicles daily.

[8] = tested on: Trichophyton rubrum; assay: Example J: Trichophyton rubrum growth inhibition, scoring by eye; type: cell-based; details: Trichophyton rubrum, 144 h; 6 days at 30° C., tested 6 to 40 μM; read-out: MIC, μM (maximum inhibition concentration, scoring by eye)
Method: Trichophyton grown on two agar plates were collected by scraping into 10 ml saline and filtered through 8 μm filters. […] This experiment included some active compounds from previous experiment and added several untested compounds. […] Following table listed the maximum inhibition concentration (MIC) based on scoring by eye. Scrape frozen Trichophyton culture from ATCC vial and suspended in 100 μl PDB, and then plate on a PDA plate. Incubate plate at 30 C for 4 days. The plate was covered almost full. […] Take OD of collected solution at 520 nm and 600 nm: […] Part-II: […] Add 6 μl each of diluted compound solutions per well in triplicates. […] Wrap the plates with […] incubate all plates at 30° C. for 6 days. • Take picture of the plates on KODAK imager with 17 captures of 1.5 sec/capture for total of 25.5 second exposure.

[9] = tested on: Cryptococcus neoformans (serotype D); assay: Example K: Cryptococcus neoformans (serotype D) growth inhibition; type: cell-based; details: Cryptococcus deneoformans, OD of 48 hour reading, 37° C., tested 4 to 60 μM, XLfit
Method: Cryptococcus neoformans (serotype D) were plated in 96 well plates with 144 μl/well of 8×10e5 CFU/ml in YM growth medium. Diluted compounds were then added to each well with concentration ranged from 4 to 60 μM as final concentration in duplicates. The plates were inoculated at 37° C. for total of 48 hours. Two readings of OD at 600 nm were measured after 30 and 48 hour treatments.
• 1. Pick a single colony of Cryptococcus from the YM agar plate using the inoculum loop and inoculate into a 125 ml flask containing 25 ml of YM growth medium. • 2. Incubate at 37° C. with shaking at 220 rpm for 24 hours with loosen lid to allow air in and facilitates growth. • 3. Examine an aliquot of the culture under a microscope for yeast cell morphology and lack of bacterial contamination. • 4. Dilute the overnight culture with YM medium at 1:100 dilution and count the number of cells as 1×10^6 cfu/ml. • 5. Make a final concentration of cells suspension at 8×10^5 cfu/ml in YM medium. • 6. Plate 144 μl/well of 8×10^5 cfu/ml cell suspension on 96-well plates. Part-II: Cryptococcus Growth Inhibition Testing with Compounds • 1. From 10 mM DMSO stock solutions, make serial dilutions of compounds to 0.1, 0.2, 0.3, 0.5, 1.0 and 1.5 mM solution. • 2. Add 6 ul each of diluted compound solutions per well in duplicates. The final concentrations were 0, 4, 8, 12, 20, 40 and 60 micromolar. • 3. Incubated all plates at 37° C. overnight (30 hours) with 150 rpm shaking. • 4. Read absorbance at OD600 for each plate. • 5. Leave plates in 37° C. incubator for another day and read absorbance at OD600 again at 48 hours to ensure the inhibitory effect of the compounds. • 6. Calculated the % inhibition and IC50 of each compound against untreated cells.

MIC [4]: 96.7 µM (≈ 35.3 µg/mL) | IC50 [4]: 34.6 µM
Structure (SMILES): CCCCCCOc1ccc(OCCNc2ccnc3ccccc23)cc1 [BA, N-{2-[4-(Hexyloxy)phenoxy]ethyl}quinolin-4-amine]
Viable cell percent change, Chronic/48-hour, Mean [1]: 41.79% | viability at 1 µM ([2]; 1 μM, read-out: 4T1 1 μM, percent of cancer cell survival relative to vehicle treated cells): 71.7% | viability at 5 µM ([2]; 5 μM, read-out: 4T1 5 μM, percent of cancer cell survival relative to vehicle treated cells): 220% | Final Tumor Volume ([3]; 120 μmol/kg/day oral gavage, day 2 to day 30): 641 ± 159 mm^3 | Δ BW % ([3]; 120 μmol/kg/day oral, final vs initial body weight): −2.7% | Final Body Weight ([3]; 120 μmol/kg/day oral, final, in g (unit assumed)): 24.8 ± 2.0 | Initial Body Weight ([3]; 120 μmol/kg/day oral, initial (baseline)): 25.5 ± 1.5 g | viability at 1.5 µM [5]: 42.4% | viability at 1.5 µM ([6]; Homo sapiens, compound 1.5 μM alone, Wst1, vehicle = 100, read-out: No Chemo: percent cell survival): 42.4% | Doxorubicin 3.5 μM: percent cell survival ([6]; compound 1.5 μM + doxorubicin 3.5 μM, chemotherapy agent alone normalized to 100%): 167.3% | Oxaliplatin 100 μM: percent cell survival ([6]; compound 1.5 μM + oxaliplatin 100 μM, chemotherapy agent alone normalized to 100%): 146.7% | Paclitaxel 50 μM: percent cell survival ([6]; compound 1.5 μM + paclitaxel 50 μM, chemotherapy agent alone normalized to 100%): 145.7% | Vincristine 100 nM: percent cell survival ([6]; compound 1.5 μM + vincristine 100 nM, chemotherapy agent alone normalized to 100%): 148.7%

MIC [4]: 33 µM (≈ 11.1 µg/mL) | IC50 [4]: 11 µM | MIC [8]: 18 µM (≈ 6.04 µg/mL) | IC50 ([9]; read-out: IC50 (concentration for 50% of inhibition)): 1.15 µM | MIC ([9]; read-out: MIC (concentration for maximum-99% of inhibition)): 40.8 µM (≈ 13.7 µg/mL)
Structure (SMILES): CCCCCCOc1ccc(CNc2ncnc3ccccc23)cc1 [AB, N-[4-(Hexyloxy)benzyl]quinazolin-4-amine]
Tumor Weight (g) Mean ± SEM [7]: 0.88 ± 0.33 g | Body Weight (g) Mean ± SEM Initial [7]: 26.2 ± 0.7 g | Complete Regressions [7]: 2 | Viable cell percent change, Chronic/48-hour, Mean [1]: 56.56%

Structure (SMILES): CNC(=O)c1cc(Oc2ccc(NC(=O)Nc3ccc(Cl)c(C(F)(F)F)c3)cc2)ccn1 [Sorafenib, sorafenib, reference compound]
Tumor Weight (g) Mean ± SEM [7]: 0.81 ± 0.20 g | Body Weight (g) Mean ± SEM Initial [7]: 25.9 ± 0.7 g | Complete Regressions [7]: 1
